In PubChem BioAssay AID2060513 (Molecular Pharmacology Branch, DTP, NCI, 2025):

System: 299254-011-R-J1-PDC complex spheroids viability
Assay: Anticancer human tumor 299254-011-R-J1-PDC patient-derived melanoma cell line growth inhibition [GQUAD]
Settings: for IC50: curve of first compound; for viability, T/C: stronger effect = lower value
Outline: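 Multi-cell-type spheroids of tumor cells with HUVEC and mesenchymal stem cells, treated with drug combinations. Concentrations descend in half-log steps from near clinical Cmax, or from 10 microM where Cmax is unknown; viability read-out.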

[1] = second compound 0.0316 µM, first compound 0.0316 µM
[2] = second compound 0.0316 µM, first compound 0.1 µM
[3] = second compound 0.0316 µM, first compound 0.316 µM
[4] = second compound 0.0316 µM, first compound 1 µM
[5] = second compound 0.0316 µM, first compound 3.16 µM
[6] = second compound 0.0316 µM, first compound 10 µM
[7] = second compound 0.1 µM, first compound 0.0316 µM
[8] = second compound 0.1 µM, first compound 0.1 µM
[9] = second compound 0.1 µM, first compound 0.316 µM
[10] = second compound 0.1 µM, first compound 1 µM
[11] = second compound 0.1 µM, first compound 3.16 µM
[12] = second compound 0.1 µM, first compound 10 µM
[13] = second compound 0.316 µM, first compound 0.0316 µM
[14] = second compound 0.316 µM, first compound 0.1 µM
[15] = second compound 0.316 µM, first compound 0.316 µM
[16] = second compound 0.316 µM, first compound 1 µM
[17] = second compound 0.316 µM, first compound 3.16 µM
[18] = second compound 0.316 µM, first compound 10 µM
[19] = second compound 1 µM, first compound 0.0316 µM
[20] = second compound 1 µM, first compound 0.1 µM
[21] = second compound 1 µM, first compound 0.316 µM
[22] = second compound 1 µM, first compound 1 µM
[23] = second compound 1 µM, first compound 3.16 µM
[24] = second compound 1 µM, first compound 10 µM
[25] = second compound 3.16 µM, first compound 0.0316 µM
[26] = second compound 3.16 µM, first compound 0.1 µM
[27] = second compound 3.16 µM, first compound 0.316 µM
[28] = second compound 3.16 µM, first compound 1 µM
[29] = second compound 3.16 µM, first compound 3.16 µM
[30] = second compound 3.16 µM, first compound 10 µM
[31] = second compound 10 µM, first compound 0.0316 µM
[32] = second compound 10 µM, first compound 0.1 µM
[33] = second compound 10 µM, first compound 0.316 µM
[34] = second compound 10 µM, first compound 1 µM
[35] = second compound 10 µM, first compound 3.16 µM
[36] = second compound 10 µM, first compound 10 µM
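Also: spheroids exposed to the agents for seven days before readout.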
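For viability, T/C in this document: percent viability relative to DMSO vehicle control wells = 100%.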

In the case of `COc1cc(C2c3cc4c(cc3C(OC3OC5COC(C)OC5C(O)C3O)C3COC(=O)C23)OCO4)cc(OC)c1O` (stereo unspecified) + Cc1cnc(CNC(=O)c2c(=O)c3ccc(N4CCCN(C)CC4)nc3n3c2sc2ccccc23)cn1, the IC50 (second compound 0.0316 µM) is reported as > 10000 nM, the IC50 (second compound 0.1 µM) is reported as > 10000 nM and the IC50 (second compound 0.316 µM) is reported as > 10000 nM. For the same compound, the IC50 (second compound 1 µM) was > 10000 nM, the IC50 (second compound 3.16 µM) was > 10000 nM and the IC50 (second compound 10 µM) was 31.6 nM. The viability, T/C [1] was 105%, the viability, T/C [2] was 121% and the viability, T/C [3] was 84.4%. For the same compound, the viability, T/C [4] was 90.1%, the viability, T/C [5] was 76.7% and the viability, T/C [6] was 86.6%. It also gave a viability, T/C [7] of 112%, a viability, T/C [8] of 95.8% and a viability, T/C [9] of 89%. The viability, T/C [10] was 87.9%, the viability, T/C [11] was 95.1% and the viability, T/C [12] was 77.7%. For the same compound, the viability, T/C [13] was 90%, the viability, T/C [14] was 110% and the viability, T/C [15] was 130%. It also gave a viability, T/C [16] of 105%, a viability, T/C [17] of 82.4% and a viability, T/C [18] of 63.5%. It also gave a viability, T/C [19] of 90.4%, a viability, T/C [20] of 84.8% and a viability, T/C [21] of 103%. For the same compound, the viability, T/C [22] was 75.9%, the viability, T/C [23] was 84.9% and the viability, T/C [24] was 61.9%. The viability, T/C [25] was 78.5%, the viability, T/C [26] was 79.5% and the viability, T/C [27] was 69.1%. It also gave a viability, T/C [28] of 73%, a viability, T/C [29] of 82.4% and a viability, T/C [30] of 59.2%. For the same compound, the viability, T/C [31] was 31%, the viability, T/C [32] was 16.7% and the viability, T/C [33] was 67.1%. The viability, T/C [34] was 69.8%, the viability, T/C [35] was 33.5% and the viability, T/C [36] was 0.3%.

`CC(=O)O[C@H]1C(=O)[C@@]2(C)[C@H]([C@H](OC(=O)c3ccccc3)[C@]3(O)C[C@H](OC(=O)[C@H](O)[C@@H](NC(=O)c4ccccc4)c4ccccc4)C(C)=C1C3(C)C)[C@]1(OC(C)=O)CO[C@@H]1C[C@@H]2O` + Cc1[nH]c2ccc(F)cc2c1-c1nc2c3cccnc3c3ncccc3c2[nH]1 gave an IC50 (second compound 0.0316 µM) of 448 nM, an IC50 (second compound 0.1 µM) of 274 nM and an IC50 (second compound 0.316 µM) of 445 nM. It also gave an IC50 (second compound 1 µM) of 506 nM, an IC50 (second compound 3.16 µM) of 531 nM and an IC50 (second compound 10 µM) of 405 nM. It also gave a viability, T/C [1] of 90.7%, a viability, T/C [2] of 82% and a viability, T/C [3] of 58.2%. It also gave a viability, T/C [4] of 31.2%, a viability, T/C [5] of 18% and a viability, T/C [6] of 15.5%. The viability, T/C [7] was 86.8%, the viability, T/C [8] was 94.6% and the viability, T/C [9] was 44.2%. It also gave a viability, T/C [10] of 35.9%, a viability, T/C [11] of 20.7% and a viability, T/C [12] of 13.9%. It also gave a viability, T/C [13] of 104%, a viability, T/C [14] of 86.1% and a viability, T/C [15] of 57.2%. It also gave a viability, T/C [16] of 33.4%, a viability, T/C [17] of 19.2% and a viability, T/C [18] of 17.3%. It also gave a viability, T/C [19] of 89.6%, a viability, T/C [20] of 92.6% and a viability, T/C [21] of 50.1%. For the same compound, the viability, T/C [22] was 43.1%, the viability, T/C [23] was 21.2% and the viability, T/C [24] was 17.4%. It also gave a viability, T/C [25] of 83.3%, a viability, T/C [26] of 84.2% and a viability, T/C [27] of 58.2%. It also gave a viability, T/C [28] of 38.7%, a viability, T/C [29] of 22.8% and a viability, T/C [30] of 21.6%. It also gave a viability, T/C [31] of 87.6%, a viability, T/C [32] of 84.5% and a viability, T/C [33] of 48.3%. It also gave a viability, T/C [34] of 40.3%, a viability, T/C [35] of 23.7% and a viability, T/C [36] of 22.8%.

`C=CCn1c(=O)c2cnc(Nc3ccc(N4CCN(C)CC4)cc3)nc2n1-c1cccc(C(C)(C)O)n1` + Cc1cnc(CNC(=O)c2c(=O)c3ccc(N4CCCN(C)CC4)nc3n3c2sc2ccccc23)cn1 gave an IC50 (second compound 0.0316 µM) of 1540 nM, an IC50 (second compound 0.1 µM) of 1500 nM and an IC50 (second compound 0.316 µM) of 1180 nM. The IC50 (second compound 1 µM) was 678 nM, the IC50 (second compound 3.16 µM) was 607 nM and the IC50 (second compound 10 µM) was < 31.6 nM. It also gave a viability, T/C [1] of 118%, a viability, T/C [2] of 109% and a viability, T/C [3] of 100%. The viability, T/C [4] was 55.2%, the viability, T/C [5] was 41% and the viability, T/C [6] was 25.3%. It also gave a viability, T/C [7] of 109%, a viability, T/C [8] of 112% and a viability, T/C [9] of 77.3%. It also gave a viability, T/C [10] of 64.2%, a viability, T/C [11] of 31.5% and a viability, T/C [12] of 27.1%. It also gave a viability, T/C [13] of 89.8%, a viability, T/C [14] of 125% and a viability, T/C [15] of 88.2%. For the same compound, the viability, T/C [16] was 55%, the viability, T/C [17] was 30.1% and the viability, T/C [18] was 30.1%. The viability, T/C [19] was 75.3%, the viability, T/C [20] was 80.8% and the viability, T/C [21] was 71.9%. For the same compound, the viability, T/C [22] was 38.6%, the viability, T/C [23] was 27.9% and the viability, T/C [24] was 24.4%. For the same compound, the viability, T/C [25] was 73.3%, the viability, T/C [26] was 74.9% and the viability, T/C [27] was 55.5%. It also gave a viability, T/C [28] of 44.4%, a viability, T/C [29] of 28.9% and a viability, T/C [30] of 20.2%. It also gave a viability, T/C [31] of 19%, a viability, T/C [32] of 15.2% and a viability, T/C [33] of 41.8%. For the same compound, the viability, T/C [34] was 36.9%, the viability, T/C [35] was 0.45% and the viability, T/C [36] was 0.32%.
